Paper PMC5768637, “In Vitro and in Silico Evidence of Phosphatase Diversity in the Biomineralizing Bacterium Ramlibacter tataouinensis” (Frontiers in Microbiology, 2018)

Legend:
Rta PhoX1 = molecular target: T1, Rta PhoX1 (Ramlibacter tataouinensis, UniProt F5Y472); experiment: p-nitrophenol release at […] nm, total soluble protein of expressing E. coli; type: biochemical; conditions: 50 mM Tris pH 8, 5 mM CaCl2, 5 mM MgCl2, 0.6 mM substrate
T1 construct: gene Rta_14460; codon-optimised synthetic gene in pET-22b (MscI/BamHI), E. coli BL21(DE3); total soluble protein extract; precursor 643 aa, predicted Tat signal 51 aa; no precursor form seen on SDS-PAGE
T1 sequence (F5Y472 52-643): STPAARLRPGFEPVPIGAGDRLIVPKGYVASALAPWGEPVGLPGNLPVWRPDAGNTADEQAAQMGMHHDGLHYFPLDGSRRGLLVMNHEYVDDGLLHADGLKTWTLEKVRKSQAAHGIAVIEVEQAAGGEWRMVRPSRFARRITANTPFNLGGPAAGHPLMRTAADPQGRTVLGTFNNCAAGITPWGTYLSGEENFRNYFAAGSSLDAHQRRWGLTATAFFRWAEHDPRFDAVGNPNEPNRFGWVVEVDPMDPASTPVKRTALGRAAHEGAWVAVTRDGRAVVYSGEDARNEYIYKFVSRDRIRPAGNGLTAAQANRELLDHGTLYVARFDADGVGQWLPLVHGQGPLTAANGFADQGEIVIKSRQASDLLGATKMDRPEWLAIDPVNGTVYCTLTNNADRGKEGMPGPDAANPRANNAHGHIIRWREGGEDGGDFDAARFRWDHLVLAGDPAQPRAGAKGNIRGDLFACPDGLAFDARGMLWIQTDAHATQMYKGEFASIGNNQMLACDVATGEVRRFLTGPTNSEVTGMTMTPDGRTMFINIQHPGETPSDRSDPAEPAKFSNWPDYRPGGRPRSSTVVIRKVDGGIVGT

Rta PhoD = molecular target: T2, Rta PhoD (Ramlibacter tataouinensis, UniProt F5XVP7); experiment: as above; type: biochemical; conditions: 50 mM Tris pH 8, 5 mM CaCl2, 5 mM MgCl2, 0.6 mM substrate
T2 construct: codon-optimised synthetic gene in pET-22b (MscI/BamHI), E. coli BL21(DE3); total soluble protein extract; precursor 530 aa, predicted Tat signal 31 aa; no precursor form seen on SDS-PAGE
T2 sequence (F5XVP7 32-530): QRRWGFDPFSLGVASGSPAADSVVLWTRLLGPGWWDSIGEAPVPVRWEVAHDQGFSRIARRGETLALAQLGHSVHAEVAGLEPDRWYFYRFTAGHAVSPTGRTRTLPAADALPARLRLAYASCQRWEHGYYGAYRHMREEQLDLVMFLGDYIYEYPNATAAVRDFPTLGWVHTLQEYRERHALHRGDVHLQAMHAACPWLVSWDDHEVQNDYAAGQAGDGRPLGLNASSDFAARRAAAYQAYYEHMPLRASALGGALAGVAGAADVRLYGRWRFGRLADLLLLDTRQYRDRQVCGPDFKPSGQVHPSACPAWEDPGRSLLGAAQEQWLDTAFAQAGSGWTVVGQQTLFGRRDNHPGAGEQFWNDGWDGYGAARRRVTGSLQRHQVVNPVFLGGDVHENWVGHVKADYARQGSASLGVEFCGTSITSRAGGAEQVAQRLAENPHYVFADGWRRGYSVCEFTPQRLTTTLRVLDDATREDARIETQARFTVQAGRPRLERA

Structure (SMILES) | p-nitrophenol release at 405 nm, total soluble protein of expressing E. coli (Rta PhoX1) | p-nitrophenol release at 405 nm, total soluble protein of expressing E. coli (Rta PhoD)
O=[N+]([O-])c1ccc(OP(=O)(O)O)cc1 [pNPP, p-nitrophenylphosphate] | the activity of PhoX1 was higher for monoester | PhoD and PhoX1 hydrolyzed all the pNPP derivatives (pNPP, bis-pNPP, and TpNPP)
O=[N+]([O-])c1ccc(OP(=O)(O)Oc2ccc([N+](=O)[O-])cc2)cc1 [bis-pNPP, bis p-nitrophenylphosphate] | PhoD and PhoX1 hydrolyzed all the pNPP derivatives (pNPP, bis-pNPP, and TpNPP) | the activity of PhoD was higher for bis-pNPP diester
